In patent US11492348B2, “Tri-substituted aryl and heteroaryl derivatives as modulators of PI3-kinase and autophagy pathways” (Neuropore Therapies, Inc., priority 2018, dated 2022):
Structures can show the parent of a compound that is named as a salt.

Columns and labels:
PI3Kα = PI3Kα (Homo sapiens (Human), UniProt P42336); assay: Inhibition of PI3Kα (ADP-Glo kinase activity assay, ATP to ADP conversion); type: biochemical; details: 25 μM PIP2:PS, 60 μM ATP, 30 min reaction, luminescence
Outline: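 Recombinant active PI3Kα (1.1 nM) in HEPES pH 7.5 buffer with 6 mM MgCl2 and 8 mM DTT was preincubated with compound for 0 or 3 h. The reaction ran for 30 min with 25 µM PIP2:PS and 60 µM ATP, and ADP formation was read by ADP-Glo luminescence. IC50 came from a 12-point, 1:3 series fitted with a 4-parameter model, bottom fixed to reference inhibitor controls and top floating.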

[1] = system: (Ser-473) pAKT in B103 (Rat Neuroblastoma) cells; assay: pAKT protocol: loss of (Ser-473) pAKT by AlphaScreen in insulin-stimulated B103 cells; type: cell-based; details: (Ser-473) pAKT/total AKT IC50, 2-hour pretreatment, 2.5 μg/mL insulin 20 minutes
Outline: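 Rat neuroblastoma B103 cells, serum-starved 6 h, were pretreated 2 h with inhibitors (6-point 1:3 series, 0.5% DMSO) before insulin stimulation. Lysate Ser-473 pAKT and total AKT measured by AlphaScreen; pAKT/total AKT ratio fitted to 4-parameter curve, bottom constrained to reference control, top anchored to DMSO.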

mTor kinase = mTor kinase (Homo sapiens (Human), UniProt P42345); assay: mTor assay (33P-ATP filter-binding kinase assay); type: biochemical; details: 2 hours at room temperature
Method: The substrate was prepared in base reaction buffer (20 mM Hepes (pH 7.5), 10 mM MgCl2, 1 mM EGTA, 0.02% Brij35, 0.02 mg/ml BSA, 0.1 mM Na3VO4, 2 mM DTT, 1% DMSO), and required cofactors were added to the substrate solution. The mTor kinase was delivered into the substrate solution, and the solution was gently mixed. Testing compounds were dissolved in 100% DMSO to specific concentration. The serial dilution was conducted by Integra Viaflo Assist in DMSO. The compounds were delivered into the kinase reaction mixture by Acoustic technology (Echo550; nanoliter range), and the reaction mixture was incubated for 20 min at room temperature. Then, 33P-ATP (Specific activity 10 μCi/μl) was delivered into the reaction mixture to initiate the reaction. The reaction mixture was incubated for 2 hours at room temperature. Radioactivity was detected by a filter-binding method. Kinase activity data were expressed as the percent remaining kinase activity in test samples compared to vehicle (dimethyl sulfoxide) reactions. IC50 values and curve fits were obtained using Prism (GraphPad Software).

Chain of PI3Kα (P42336 whole entry): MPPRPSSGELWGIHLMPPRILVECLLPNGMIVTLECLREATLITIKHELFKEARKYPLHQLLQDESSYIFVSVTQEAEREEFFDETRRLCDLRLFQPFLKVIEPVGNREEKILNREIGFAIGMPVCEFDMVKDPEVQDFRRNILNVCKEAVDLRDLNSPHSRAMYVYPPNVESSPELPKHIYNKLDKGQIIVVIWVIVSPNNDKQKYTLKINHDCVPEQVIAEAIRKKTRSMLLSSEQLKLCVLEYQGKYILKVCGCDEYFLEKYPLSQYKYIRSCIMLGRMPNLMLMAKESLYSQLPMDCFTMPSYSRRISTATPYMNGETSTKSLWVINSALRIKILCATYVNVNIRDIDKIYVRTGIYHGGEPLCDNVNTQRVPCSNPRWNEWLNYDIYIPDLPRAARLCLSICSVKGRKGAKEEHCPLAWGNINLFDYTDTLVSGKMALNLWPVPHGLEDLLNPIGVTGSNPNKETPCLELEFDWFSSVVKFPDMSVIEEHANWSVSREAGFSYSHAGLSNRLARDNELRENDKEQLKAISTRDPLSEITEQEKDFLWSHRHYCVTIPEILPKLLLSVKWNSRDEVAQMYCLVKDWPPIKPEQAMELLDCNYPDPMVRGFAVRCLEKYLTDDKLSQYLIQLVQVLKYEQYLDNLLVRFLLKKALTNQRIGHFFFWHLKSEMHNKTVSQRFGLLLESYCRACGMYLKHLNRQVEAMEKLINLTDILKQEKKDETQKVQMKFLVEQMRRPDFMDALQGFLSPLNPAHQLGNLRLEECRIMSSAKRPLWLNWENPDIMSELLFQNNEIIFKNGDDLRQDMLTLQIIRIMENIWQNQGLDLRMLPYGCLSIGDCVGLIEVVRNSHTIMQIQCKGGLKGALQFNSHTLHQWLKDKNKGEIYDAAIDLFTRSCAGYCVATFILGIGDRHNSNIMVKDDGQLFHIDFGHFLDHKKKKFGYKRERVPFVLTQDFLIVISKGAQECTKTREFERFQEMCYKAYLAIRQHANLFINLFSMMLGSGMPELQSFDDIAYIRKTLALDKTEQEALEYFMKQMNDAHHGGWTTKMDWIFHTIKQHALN
Chain of PI3Kα (P27986 whole entry partner): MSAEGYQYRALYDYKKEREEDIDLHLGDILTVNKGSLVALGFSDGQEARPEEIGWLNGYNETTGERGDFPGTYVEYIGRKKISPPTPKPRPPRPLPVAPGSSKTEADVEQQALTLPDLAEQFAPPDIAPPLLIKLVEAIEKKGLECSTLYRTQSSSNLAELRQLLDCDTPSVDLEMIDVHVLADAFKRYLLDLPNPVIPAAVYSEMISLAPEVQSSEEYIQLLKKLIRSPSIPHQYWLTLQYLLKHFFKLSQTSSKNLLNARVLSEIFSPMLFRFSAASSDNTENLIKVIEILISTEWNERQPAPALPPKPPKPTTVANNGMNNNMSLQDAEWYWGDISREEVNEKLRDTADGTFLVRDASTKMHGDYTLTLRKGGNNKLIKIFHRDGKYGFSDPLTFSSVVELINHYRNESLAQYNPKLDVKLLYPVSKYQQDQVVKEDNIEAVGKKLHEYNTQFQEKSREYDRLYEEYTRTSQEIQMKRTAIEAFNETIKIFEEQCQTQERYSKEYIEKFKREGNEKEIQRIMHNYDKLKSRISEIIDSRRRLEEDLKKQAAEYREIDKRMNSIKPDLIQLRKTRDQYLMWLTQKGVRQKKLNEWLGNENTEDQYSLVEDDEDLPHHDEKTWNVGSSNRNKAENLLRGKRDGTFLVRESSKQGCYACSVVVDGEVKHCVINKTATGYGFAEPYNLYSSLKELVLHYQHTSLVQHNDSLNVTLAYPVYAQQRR

PI3Ka IC50 (PI3Kα) [µM] | IC50 [1] [µM] | IC50 (mTor kinase) [µM] | Structure (SMILES)
0.37 | 10.9 | 10.9 | Nc1ncc(-c2cc(N3CCOCC3)cc(S(=O)(=O)Cc3ccc(F)cc3)c2)cn1 [Compound 29, 5-(3-((4-fluorobenzyl)sulfonyl)-5-morpholinophenyl)pyrimidin-2-amine]
0.61 | 7.52 | 2 | Nc1ncc(-c2cc(N3CCOCC3)cc(S(=O)(=O)c3ccccc3)c2)cn1 [Compound 1, 5-(3-morpholino-5-(phenylsulfonyl)phenyl)pyrimidin-2-amine]
0.11 | 4 | 4.7 | Nc1ncc(-c2cc(N3CCOCC3)cc(S(=O)(=O)C3COc4ccccc43)c2)cn1 (stereo not drawn) [Compound 119, 5-(3-((2,3-dihydrobenzofuran-3-yl)sulfonyl)-5-morpholinophenyl)pyrimidin-2-amine]
0.46 | 36.1 | 4.6 | Nc1ncc(-c2cc(N3CCOCC3)cc(S(=O)(=O)Cc3c[nH]cn3)c2)cn1 [59 (as a TFA salt), 5-(3-(((1H-imidazol-4-yl)methyl)sulfonyl)-5-morpholinophenyl)pyrimidin-2-amine]
1.40 | 100 | 22 | Nc1ncc(-c2cc(N3CCOCC3)cc(S(=O)(=O)c3ccc(F)c(Cl)c3)c2)cn1 [Compound 11, 5-(3-((3-chloro-4-fluorophenyl)sulfonyl)-5-morpholinophenyl)pyrimidin-2-amine]
0.023 | 0.56 | 0.59 | Nc1ncc(-c2cc(C(=O)C3CCOCC3)cc(N3CCOCC3)n2)cn1 [Compound 131, (2-(2-aminopyrimidin-5-yl)-6-morpholinopyridin-4-yl)(tetrahydro-2H-pyran-4-yl)methanone]
0.091 | 0.64 | 0.48 | Nc1ncc(-c2cc(Oc3ccccc3)cc(N3CCOCC3)n2)cn1 [Compound 120, 5-(6-morpholino-4-phenoxypyridin-2-yl)pyrimidin-2-amine]
2.9 | 37 | 16 | O=S(=O)(c1ccccc1)c1cc(-c2cnc(NCCO)nc2)cc(N2CCOCC2)c1 [Compound 19, 2-((5-(3-morpholino-5-(phenylsulfonyl)phenyl)pyrimidin-2-yl)amino)ethan-1-ol]
0.38 | 14 | 11 | N#Cc1cccc(CS(=O)(=O)c2cc(-c3cnc(N)nc3)cc(N3CCOCC3)c2)c1 [Compound 27, 3-(((3-(2-aminopyrimidin-5-yl)-5-morpholinophenyl)sulfonyl)methyl) benzonitrile]
2.7 | 100 | 10 | O=S(=O)(c1ccccc1)c1cc(-c2cnc(NC3CC3)nc2)cc(N2CCOCC2)c1 [Compound 20, N-cyclopropyl-5-(3-morpholino-5-(phenylsulfonyl)phenyl)pyrimidin-2-amine]
